For the test, the target named is T1, GluN1/GluN2A receptors (Rattus norvegicus, UniProt P35439+Q00959).
T1 construct: expressed in transfected cells; host or cells: HEK293
In words: Patch-clamp inhibition of GluN1/GluN2A receptors in transfected HEK293 cells. Particulars: 1 mM glutamate and 10 μM glycine. Format: cell-based. The method, then:
FIGURE 7 Concentration–response properties of compound 6 on GluN1/GluN2A-D receptors. (A) Examples of traces obtained from HEK293 cells transfected with cDNAs encoding GluN1/GluN2A, GluN1/GluN2B, GluN1/GluN2C, and GluN1/GluN2D receptors. Agonists (1 mM glutamate and 10 μM glycine) were applied alone and simultaneously with compound 6 (10 μM) to evaluate the inhibitory effect of compound 6 on NMDAR mediated currents (duration of glutamate and steroid application is indicated by filled and open bars, respectively). (B) Concentration–response curves for the compound 6 effect at GluN1/GluN2A-D receptors. Data points are averaged values of normalized responses from at least four HEK293 cells. Error bars represent SD.
Electrophysiological experiments were performed on HEK293 cells transfected with plasmids encoding rat GluN1-1a/GluN2A-D and GFP genes as described previously, ([Petrovic et al., 2005]; [Cais et al., 2008]; [Korinek et al., 2010]) or on primary hippocampal neurons prepared from P0–P1 rats, plated on collagen/poly-D-lysine-coated glass coverslips at a density of ∼50,000 cells/cm^2, and grown in Neurobasal A medium with B27 Supplement (Gibco). Agonist-induced responses were voltage-clamped at a holding potential of −60 mV. […] Agonist-induced responses were low-pass filtered at 2 kHz, digitally sampled at 5 kHz, and analyzed with pClamp software version 10.5 (Molecular Devices). […]
A general note: Patch clamp records ionic current or voltage across a cell membrane.

T1 sequence (Q00959 23-1464, other chains not shown): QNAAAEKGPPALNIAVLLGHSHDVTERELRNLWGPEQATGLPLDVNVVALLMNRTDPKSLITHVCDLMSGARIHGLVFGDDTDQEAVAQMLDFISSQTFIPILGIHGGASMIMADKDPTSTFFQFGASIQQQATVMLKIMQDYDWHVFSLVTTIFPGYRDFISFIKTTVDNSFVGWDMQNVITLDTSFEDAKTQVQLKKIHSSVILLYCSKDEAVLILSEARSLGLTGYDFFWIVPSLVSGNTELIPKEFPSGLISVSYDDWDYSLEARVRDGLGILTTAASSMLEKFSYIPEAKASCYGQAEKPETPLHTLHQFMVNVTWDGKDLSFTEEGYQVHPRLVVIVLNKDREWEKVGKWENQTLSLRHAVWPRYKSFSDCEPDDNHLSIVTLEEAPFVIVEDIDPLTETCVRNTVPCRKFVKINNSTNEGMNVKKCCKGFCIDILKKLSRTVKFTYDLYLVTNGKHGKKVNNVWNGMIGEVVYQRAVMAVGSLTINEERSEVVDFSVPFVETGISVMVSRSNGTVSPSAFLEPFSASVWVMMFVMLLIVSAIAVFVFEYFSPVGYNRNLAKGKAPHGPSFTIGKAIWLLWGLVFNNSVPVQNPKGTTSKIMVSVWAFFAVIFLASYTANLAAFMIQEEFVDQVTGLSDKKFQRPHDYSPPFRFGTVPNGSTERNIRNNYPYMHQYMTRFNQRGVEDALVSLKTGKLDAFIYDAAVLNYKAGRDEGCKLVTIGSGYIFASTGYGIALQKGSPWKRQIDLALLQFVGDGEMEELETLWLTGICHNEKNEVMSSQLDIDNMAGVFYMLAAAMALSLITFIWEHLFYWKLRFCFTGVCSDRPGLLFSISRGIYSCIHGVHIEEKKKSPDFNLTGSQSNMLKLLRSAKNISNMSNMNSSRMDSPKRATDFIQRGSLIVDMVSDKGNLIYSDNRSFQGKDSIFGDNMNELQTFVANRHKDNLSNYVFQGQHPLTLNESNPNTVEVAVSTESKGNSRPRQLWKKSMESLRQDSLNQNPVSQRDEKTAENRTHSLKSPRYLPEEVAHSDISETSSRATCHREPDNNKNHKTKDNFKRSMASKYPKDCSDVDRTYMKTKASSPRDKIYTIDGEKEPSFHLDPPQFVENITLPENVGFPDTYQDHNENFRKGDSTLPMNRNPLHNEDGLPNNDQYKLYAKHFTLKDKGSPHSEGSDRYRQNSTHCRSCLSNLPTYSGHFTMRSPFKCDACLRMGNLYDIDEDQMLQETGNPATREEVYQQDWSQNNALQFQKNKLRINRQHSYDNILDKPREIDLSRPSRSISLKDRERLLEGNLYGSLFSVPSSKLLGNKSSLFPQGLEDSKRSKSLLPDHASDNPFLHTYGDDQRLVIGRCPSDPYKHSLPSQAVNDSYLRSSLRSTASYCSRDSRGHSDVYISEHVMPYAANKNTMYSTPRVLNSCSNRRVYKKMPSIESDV

On to `C[C@@]12CCC[C@H]1[C@@H]1CC[C@@H]3C[C@H](NC(=O)[C@@H](N)CC(=O)O)CC[C@]3(C)[C@H]1CC2` [Compound 6, (S)-3-amino-4-(((3R,5R,8S,9S,10S,13S,14S)-10,13-dimethylhexadecahydro-1H-cyclopenta[a]phenanthren-3-yl)amino)-4-oxobutanoic acid], for which the “h ± SD (apparent Hill coefficient)” value is 1.3 ± 0.1. This molecule came in with a concentration for half-maximal inhibition (IC50) (concentration-response) of 6.5 ± 0.7 µM.

What is called IC50 is the concentration at which inhibition is half-maximal. A low value points to greater potency.

The values above are taken from article PMC6240685, “Strong Inhibitory Effect, Low Cytotoxicity and High Plasma Stability of Steroidal Inhibitors of N-Methyl-D-Aspartate Receptors With C-3 Amide Structural Motif” (Frontiers in Pharmacology, 2018).
